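Test compounds were applied to cells in 96-well plates for 48 hours at 5 doses. The concentration for 50% growth inhibition is given as GI50. Definition used: TGI = concentration required for complete inhibition of growth.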
Legend:
Assay in all cases: growth of human tumour cells (NCI), 48 h
TK-10 renal = test system: TK-10 renal
COLO 205 colon = test system: COLO 205 colon
EKVX NSCLC = test system: EKVX NSCLC
DU-145 prostate = test system: DU-145 prostate
MDA-MB-435 = test system: MDA-MB-435
HL-60(TB) leukemia = test system: HL-60(TB) leukemia
A549 NSCLC = test system: A549 NSCLC
UO-31 renal = test system: UO-31 renal
OVCAR-8 ovarian = test system: OVCAR-8 ovarian
MALME-3M melanoma = test system: MALME-3M melanoma
MOLT-4 leukemia = test system: MOLT-4 leukemia
HOP-62 NSCLC = test system: HOP-62 NSCLC
SK-MEL-2 melanoma = test system: SK-MEL-2 melanoma
RXF 393 renal = test system: RXF 393 renal
SF-539 CNS = test system: SF-539 CNS
SF-268 CNS = test system: SF-268 CNS
HCC-2998 colon = test system: HCC-2998 colon
A498 renal = test system: A498 renal
SR leukemia = test system: SR leukemia
BT-549 breast = test system: BT-549 breast
K-562 leukemia = test system: K-562 leukemia
OVCAR-5 ovarian = test system: OVCAR-5 ovarian
SW-620 colon = test system: SW-620 colon
PC-3 prostate = test system: PC-3 prostate
LOX IMVI melanoma = test system: LOX IMVI melanoma
UACC-62 melanoma = test system: UACC-62 melanoma
RPMI-8226 leukemia = test system: RPMI-8226 leukemia
M14 melanoma = test system: M14 melanoma
IGROV1 ovarian = test system: IGROV1 ovarian
MDA-MB-231 breast = test system: MDA-MB-231 breast
NCI-H460 lung = test system: NCI-H460 lung
HOP-92 NSCLC = test system: HOP-92 NSCLC
HCT-116 colon = test system: HCT-116 colon
U251 CNS = test system: U251 CNS
HS 578T breast = test system: HS 578T breast
NCI-H23 lung = test system: NCI-H23 lung
CAKI-1 renal = test system: CAKI-1 renal
UACC-257 melanoma = test system: UACC-257 melanoma
SK-MEL-28 melanoma = test system: SK-MEL-28 melanoma
HT29 colon = test system: HT29 colon
NCI-H522 lung = test system: NCI-H522 lung
SK-MEL-5 melanoma = test system: SK-MEL-5 melanoma
OVCAR-3 ovarian = test system: OVCAR-3 ovarian
SF-295 CNS = test system: SF-295 CNS
NCI/ADR-RES ovarian = test system: NCI/ADR-RES ovarian
HCT-15 colon = test system: HCT-15 colon
KM12 colon = test system: KM12 colon
CCRF-CEM leukemia = test system: CCRF-CEM leukemia
SNB-19 CNS = test system: SNB-19 CNS
SN12C renal = test system: SN12C renal
SNB-75 CNS = test system: SNB-75 CNS
OVCAR-4 ovarian = test system: OVCAR-4 ovarian
786-0 renal = test system: 786-0 renal
T-47D breast = test system: T-47D breast
NCI-H226 lung = test system: NCI-H226 lung
ACHN renal = test system: ACHN renal
SK-OV-3 ovarian = test system: SK-OV-3 ovarian
MCF7 breast = test system: MCF7 breast

## O=C(Nc1ccc(F)cc1F)c1cc(F)ccc1O
TK-10 renal
  GI50: 4.48 µM
  TGI: > 100 µM
COLO 205 colon
  GI50: 2.08 µM
  TGI: 5.06 µM
EKVX NSCLC
  GI50: 2.23 µM
  TGI: 10.5 µM
DU-145 prostate
  GI50: 3.62 µM
  TGI: > 100 µM
MDA-MB-435
  GI50: 2.86 µM
  TGI: 34.2 µM
HL-60(TB) leukemia
  GI50: 2.33 µM
  TGI: 5.38 µM
A549 NSCLC
  GI50: 3.04 µM
  TGI: > 100 µM
UO-31 renal
  GI50: 1.96 µM
  TGI: 7.16 µM
OVCAR-8 ovarian
  GI50: 3.44 µM
  TGI: > 100 µM
MALME-3M melanoma
  GI50: 2.04 µM
  TGI: 7.66 µM
MOLT-4 leukemia
  GI50: 2.63 µM
  TGI: 6.88 µM
HOP-62 NSCLC
  GI50: 2.9 µM
  TGI: 47.2 µM
SK-MEL-2 melanoma
  GI50: 2.48 µM
  TGI: 6.54 µM
RXF 393 renal
  GI50: 2.49 µM
  TGI: 8.33 µM
SF-539 CNS
  GI50: 2.85 µM
  TGI: 12.3 µM
SF-268 CNS
  GI50: 3.34 µM
  TGI: 67.1 µM
HCC-2998 colon
  GI50: 3.12 µM
  TGI: 13.1 µM
A498 renal
  GI50: 1.84 µM
  TGI: 5.53 µM
SR leukemia
  GI50: 3.95 µM
  TGI: > 100 µM
BT-549 breast
  GI50: 2.43 µM
  TGI: 6.75 µM
K-562 leukemia
  GI50: 2.41 µM
  TGI: > 100 µM
OVCAR-5 ovarian
  GI50: 3.18 µM
  TGI: > 100 µM
SW-620 colon
  GI50: 3.15 µM
  TGI: > 100 µM
PC-3 prostate
  GI50: 2.61 µM
  TGI: 9.53 µM
LOX IMVI melanoma
  GI50: 3.39 µM
  TGI: 12.1 µM
UACC-62 melanoma
  GI50: 1.38 µM
  TGI: 4.12 µM
RPMI-8226 leukemia
  GI50: 1.4 µM
  TGI: 5.01 µM
M14 melanoma
  GI50: 2.82 µM
  TGI: 13.2 µM
IGROV1 ovarian
  GI50: 2.58 µM
  TGI: > 100 µM
MDA-MB-231 breast
  GI50: 1.9 µM
  TGI: 4.9 µM
NCI-H460 lung
  GI50: 2.94 µM
  TGI: > 100 µM
HOP-92 NSCLC
  GI50: 0.569 µM
  TGI: 3.59 µM
HCT-116 colon
  GI50: 2.91 µM
  TGI: 11.1 µM
U251 CNS
  GI50: 2.95 µM
  TGI: > 100 µM
HS 578T breast
  GI50: 2.37 µM
  TGI: 9.14 µM
NCI-H23 lung
  GI50: 2.07 µM
  TGI: 6.62 µM
CAKI-1 renal
  GI50: 2.37 µM
  TGI: 11.6 µM
UACC-257 melanoma
  GI50: 2.26 µM
  TGI: 7.32 µM
SK-MEL-28 melanoma
  GI50: 2.77 µM
  TGI: 13.2 µM
HT29 colon
  GI50: 3.37 µM
  TGI: > 100 µM
NCI-H522 lung
  GI50: 2.59 µM
  TGI: > 100 µM
SK-MEL-5 melanoma
  GI50: 1.27 µM
  TGI: 2.81 µM
OVCAR-3 ovarian
  GI50: 2.77 µM
  TGI: 21.9 µM
SF-295 CNS
  GI50: 1.99 µM
  TGI: 4.36 µM
NCI/ADR-RES ovarian
  GI50: 2.81 µM
  TGI: 9.78 µM
HCT-15 colon
  GI50: 2.92 µM
  TGI: > 100 µM
KM12 colon
  GI50: 2.76 µM
  TGI: 10.6 µM
CCRF-CEM leukemia
  GI50: 3.35 µM
  TGI: > 100 µM
SNB-19 CNS
  GI50: 3.17 µM
  TGI: > 100 µM
SN12C renal
  GI50: 2.2 µM
  TGI: 8.02 µM
SNB-75 CNS
  GI50: 3.19 µM
  TGI: 30.7 µM
OVCAR-4 ovarian
  GI50: 2.59 µM
  TGI: > 100 µM
786-0 renal
  GI50: 3.19 µM
  TGI: 16.2 µM

## C=CC(C)c1cccc(C=O)c1O (stereo unspecified)
T-47D breast
  GI50: 28.8 µM
  TGI: > 100 µM
TK-10 renal
  GI50: 38.8 µM
  TGI: > 100 µM
COLO 205 colon
  GI50: > 100 µM
  TGI: > 100 µM
DU-145 prostate
  GI50: 94.9 µM
  TGI: > 100 µM
MDA-MB-435
  GI50: 4.47 µM
  TGI: 41.7 µM
HL-60(TB) leukemia
  GI50: 19.9 µM
  TGI: > 100 µM
A549 NSCLC
  GI50: > 100 µM
  TGI: > 100 µM
NCI-H226 lung
  GI50: > 100 µM
  TGI: > 100 µM
UO-31 renal
  GI50: 57.9 µM
  TGI: > 100 µM
OVCAR-8 ovarian
  GI50: 73.6 µM
  TGI: > 100 µM
MALME-3M melanoma
  GI50: > 100 µM
  TGI: > 100 µM
MOLT-4 leukemia
  GI50: 8.45 µM
  TGI: > 100 µM
HOP-62 NSCLC
  GI50: 49.3 µM
  TGI: > 100 µM
SK-MEL-2 melanoma
  GI50: 54 µM
  TGI: > 100 µM
RXF 393 renal
  GI50: 37 µM
  TGI: > 100 µM
SF-539 CNS
  GI50: 45 µM
  TGI: > 100 µM
SF-268 CNS
  GI50: 35.8 µM
  TGI: > 100 µM
HCC-2998 colon
  GI50: > 100 µM
  TGI: > 100 µM
A498 renal
  GI50: > 100 µM
  TGI: > 100 µM
SR leukemia
  GI50: 3.82 µM
  TGI: > 100 µM
BT-549 breast
  GI50: 23.8 µM
  TGI: > 100 µM
K-562 leukemia
  GI50: 4.08 µM
  TGI: > 100 µM
OVCAR-5 ovarian
  GI50: > 100 µM
  TGI: > 100 µM
SW-620 colon
  GI50: 27.2 µM
  TGI: > 100 µM
PC-3 prostate
  GI50: 26.7 µM
  TGI: > 100 µM
ACHN renal
  GI50: 80.9 µM
  TGI: > 100 µM
LOX IMVI melanoma
  GI50: 30.7 µM
  TGI: > 100 µM
UACC-62 melanoma
  GI50: 44.6 µM
  TGI: > 100 µM
RPMI-8226 leukemia
  GI50: 19.7 µM
  TGI: > 100 µM
M14 melanoma
  GI50: 27.3 µM
  TGI: > 100 µM
IGROV1 ovarian
  GI50: 37 µM
  TGI: > 100 µM
MDA-MB-231 breast
  GI50: 27.3 µM
  TGI: > 100 µM
NCI-H460 lung
  GI50: > 100 µM
  TGI: > 100 µM
HOP-92 NSCLC
  GI50: 4.93 µM
  TGI: 70.5 µM
HCT-116 colon
  GI50: 18.1 µM
  TGI: > 100 µM
U251 CNS
  GI50: 42.6 µM
  TGI: > 100 µM
NCI-H23 lung
  GI50: > 100 µM
  TGI: > 100 µM
SK-OV-3 ovarian
  GI50: > 100 µM
  TGI: > 100 µM
CAKI-1 renal
  GI50: 45 µM
  TGI: > 100 µM
SK-MEL-28 melanoma
  GI50: > 100 µM
  TGI: > 100 µM
HT29 colon
  GI50: 37 µM
  TGI: > 100 µM
NCI-H522 lung
  GI50: > 100 µM
  TGI: > 100 µM
SK-MEL-5 melanoma
  GI50: 49.2 µM
  TGI: > 100 µM
OVCAR-3 ovarian
  GI50: 58.3 µM
  TGI: > 100 µM
SF-295 CNS
  GI50: > 100 µM
  TGI: > 100 µM
NCI/ADR-RES ovarian
  GI50: 19.6 µM
  TGI: > 100 µM
HCT-15 colon
  GI50: 22 µM
  TGI: > 100 µM
KM12 colon
  GI50: 91.6 µM
  TGI: > 100 µM
CCRF-CEM leukemia
  GI50: 17.4 µM
  TGI: > 100 µM
MCF7 breast
  GI50: 15.8 µM
  TGI: > 100 µM
SNB-19 CNS
  GI50: 74.2 µM
  TGI: > 100 µM
SN12C renal
  GI50: 53.7 µM
  TGI: > 100 µM
SNB-75 CNS
  GI50: 35.1 µM
  TGI: > 100 µM
OVCAR-4 ovarian
  GI50: 75.4 µM
  TGI: > 100 µM
786-0 renal
  GI50: 97.1 µM
  TGI: > 100 µM

From PubChem BioAssay (NCI)
